According to article PMC7413297 (Journal of immunology (Baltimore, Md. : 1950), 2020):
Like-named read-outs stand apart in the source and are kept apart here. Ends that are not written are not given here. Peptide text beside a SMILES is read from it.

Molecular target: HLA A*02:01 class I molecules (Homo sapiens, UniProt P04439, D140Y/D185E/D98H/E176V/E277Q/G131W/G231S/I119V/I121R/I166T/I218V/L300P/L318F/N151K/N90K/P208A/P217A/Q86G/Q94H/R138H/R169H/T345S)
Test: MHC-peptide competitive binding assay
[1] = as standard assay but excluding protease inhibitors
[2] = reducing conditions, 1 mM 2-ME added
[3] = IC50 2-ME, reducing conditions, 1 mM 2-ME added
[4] = IC50 No Protease Inhibitors, as standard assay but excluding protease inhibitors

Q: 1LBETBLIV was tested. Which “IC50 No Protease Inhibitors” value [1] did it give?
A: The value was 14 ng/mL.

Q: And the “IC50 2-ME” value [2]?
A: Its value is 24 ng/mL.

Q: With `CC[C@H](C)[C@H](N)C(=O)N[C@@H](CC(C)C)C(=O)N[C@@H](CS)C(=O)N[C@@H](CCC(=O)O)C(=O)N[C@H](C(=O)N[C@@H](CS)C(=O)N[C@@H](CC(C)C)C(=O)N[C@H](C(=O)N[C@H](C(=O)O)C(C)C)[C@@H](C)CC)[C@@H](C)O` [reference compound] (H-ILCETCLIV-OH) as the compound, how does the IC50 read?
A: The IC50 was 458 nM.

Q: What about the IC50 [3] of the same compound?
A: The IC50 was 304 nM.

Q: What about the IC50 [4] of the same compound?
A: The IC50 was 323 nM.

Q: With `CC[C@H](C)[C@H](N)C(=O)N[C@@H](CC(C)C)C(=O)N[C@@H](CS)C(=O)NCC(=O)N[C@H](C(=O)N[C@@H](CS)C(=O)N[C@@H](CC(C)C)C(=O)N[C@H](C(=O)N[C@H](C(=O)O)C(C)C)[C@@H](C)CC)[C@@H](C)O` [reference compound] (H-ILCGTCLIV-OH) as the compound, how does the IC50 read?
A: Its IC50 is 206 nM.

Q: And the IC50 [3]?
A: Its IC50 is 244 nM.

Q: And the IC50 [4]?
A: Its IC50 is 582 nM.

Q: How did the IC50 [3] turn out when ACDPHSGHFV [reference compound] was run?
A: The IC50 was 12600 nM.

Q: What about the IC50 [4] of the same compound?
A: The IC50 was 3090 nM.

Q: Which results are given for BISSBNPNL?
A: IC50 No Protease Inhibitors [1]: 604 ng/mL; IC50 2-ME [2]: 1,260 ng/ml

Q: With BISSBNPNP as the compound, how does the “IC50 No Protease Inhibitors” value [1] read?
A: Its value is 17,100 ng/ml.

Q: What about the “IC50 2-ME” value [2] of the same compound?
A: The value was 13,400 ng/ml.

Q: What does the source list for BISSCNPNL?
A: IC50 No Protease Inhibitors [1]: 573 ng/mL; IC50 2-ME [2]: 250 ng/mL

Q: Which results are given for BQWGRLWQL?
A: IC50 No Protease Inhibitors [1]: 121 ng/mL; IC50 2-ME [2]: 93 ng/mL

Q: How did the “IC50 No Protease Inhibitors” value [1] turn out when CISSBNPNL was run?
A: The value was 1,047 ng/ml.

Q: And the “IC50 2-ME” value [2]?
A: The value was 618 ng/mL.

Q: With CQWGRLWQL [reference compound] as the compound, how does the IC50 read?
A: The IC50 was 1200 nM.

Q: What about the IC50 [3] of the same compound?
A: Its IC50 is 130 nM.

Q: What about the IC50 [4] of the same compound?
A: Its IC50 is 952 nM.

Q: With HMTEVVRRC [reference compound] as the compound, how does the IC50 read?
A: The IC50 was 9010 nM.

Q: What about the IC50 [3] of the same compound?
A: The IC50 was 907 nM.

Q: What about the IC50 [4] of the same compound?
A: The IC50 was 1010 nM.

Q: How did the “IC50 No Protease Inhibitors” value [1] turn out when ILBETCLIV was run?
A: The value was 58 ng/mL.

Q: What about the “IC50 2-ME” value [2] of the same compound?
A: The value was 82 ng/mL.

Q: With ILBGTBLIV as the compound, how does the “IC50 No Protease Inhibitors” value [1] read?
A: The value was 733 ng/mL.

Q: What about the “IC50 2-ME” value [2] of the same compound?
A: The value was 1,547 ng/ml.

Q: With ILCETBLIV as the compound, how does the “IC50 No Protease Inhibitors” value [1] read?
A: Its value is 104 ng/mL.

Q: And the “IC50 2-ME” value [2]?
A: The value was 93 ng/mL.

Q: Which “IC50 No Protease Inhibitors” value [1] does the source give for ILCGTBLIV here?
A: The value was 839 ng/mL.

Q: And the “IC50 2-ME” value [2]?
A: The value was 885 ng/mL.

Q: With RLPRIFBSB as the compound, how does the “IC50 No Protease Inhibitors” value [1] read?
A: Its value is 7.2 ng/mL.

Q: And the “IC50 2-ME” value [2]?
A: Its value is 14 ng/mL.

Q: For RLPRIFCSB, which “IC50 No Protease Inhibitors” value [1] is on record?
A: Its value is 11 ng/mL.

Q: What about the “IC50 2-ME” value [2] of the same compound?
A: Its value is 27 ng/mL.

Q: How did the IC50 turn out when SCSRAIPQV [reference compound] was run?
A: The IC50 was 1530 nM.

Q: What about the IC50 [3] of the same compound?
A: The IC50 was 207 nM.

Q: And the IC50 [4]?
A: Its IC50 is 551 nM.

Q: What does the source list for SCSRAVPQV [reference compound]?
A: IC50: 12300 nM; IC50 [3]: 2480 nM; IC50 [4]: 7350 nM

Q: SLLMWITQB was tested. Which “IC50 No Protease Inhibitors” value [1] did it give?
A: Its value is 94 ng/mL.

Q: What does the source list for VLPDVFIRB?
A: IC50 No Protease Inhibitors [1]: 3.3 ng/mL; IC50 2-ME [2]: 2.5 ng/mL

Q: Which results are given for VLPDVFIRC [reference compound]?
A: IC50: 454 nM; IC50 [3]: 30.2 nM; IC50 [4]: 121 nM
